Source: patent US20260355225A1 (priority 2022, published 2026)
Several values for one entry are separate records, joined by “and”; a condition that tells them apart may be missing. Equal entries are not always repeated.

Experiments:
HeLa TZMBL cells = experiment: Cytotoxicity of D-xylose alone or + insulin, MTT assay, absence of viral infection (Example 2)
[1] = as above; settings: human, hela tzmbl cells
HIV-1 NL4-3 = experiment: Antiviral assay against HIV-1 NL4-3, percentage of infected cells by immunofluorescence (Example 2); settings: Human immunodeficiency virus 1, NL43, 48 h
[2] = as above; settings: human, hela tzmbl cells, Viability Percentages, replicate wells
Vero AD cells = experiment: Cytotoxicity of D-xylose, MTT assay, absence of viral infection (Example 1); assay type: cell-based; settings: remdesivir at the time of infection
Method: (§1) Cells (Vero E6) were used, with two modes of administration: either at the same time or 6 h before infection with SARS-CoV-2 (isolated early).
(§2) The readout for this test is CPE, so the infection will be stopped at 72 hpi (hours post-infection), and the compound will remain for the duration of the experiment. In parallel, the cytotoxicity of the same compound concentrations will be tested in the absence of viral infection.
(§3) The day before the experiment, the 8,000 cells/well are seeded in two 96-well plates (clear, Sarstedt), one for the antiviral study and one for the cytotoxicity study.
(§4) 134.4 μl of the 1 M composition is transferred to 1,465.6 μl of infection medium (=84 mM, twice the final maximum concentration).
(§5) Next, the cell support in the cytotoxicity plate is removed.
(§6) Immediately afterwards, 50 μl of undiluted infection medium is added to all the wells.
(§7) Next, 50 μl of infection medium without diluent is added to columns 4 to 6.
(§8) Next, the plate is incubated at 37 °C, 5% CO2 for 48 h.
(§9) After 72 h, when the CPE is evident, an MTT assay is performed for the antiviral and cytotoxicity plates.

[3] = as above; assay type: cell-based; settings: monkey, vero cells, remdesivir at the time of infection, read-out: Viability percentage
Method: as §1, §2, §3, §4, §5, §6, §7, §8, §9

SARS-CoV-2 [4] = experiment: Antiviral assay, inhibition of virus-induced cytopathic effect (CPE) of SARS-CoV-2 by MTT assay (Example 1); settings: remdesivir at the time of infection; for Viability percentage: 4320 min
[5] = test system: glycated hemoglobin (HbA1c); settings: healthy person; cited from earlier work
SARS-CoV-2 [6] = settings: pre-incubation of 25 minutes prior to infection; cited from earlier work
[7] = AZT 0.002 μM, 2880 min, 0.002 µM
[8] = AZT 0.007 μM, 2880 min, 0.007 µM
[9] = AZT 0.062 μM, 2880 min, 0.062 µM
[10] = AZT 0.556 μM, 2880 min, 0.556 µM
[11] = AZT 1.667 μM, 2880 min, 1.667 µM
[12] = Triton added to untreated cells as control

Cc1cn([C@H]2C[C@H](N=[N+]=[N-])[C@@H](CO)O2)c(=O)[nH]c1=O [AZT, 3-azido-3-deoxythymidine, reference compound]
Results for Cytotoxicity (MTT readout) (HeLa TZMBL cells; AZT 0.002 μM): 2.455 and 2.474 and 2.438 | Cytotoxicity percentage (HeLa TZMBL cells; [7]): −1.89% and −2.69% and −1.17% | Viability percentage (HeLa TZMBL cells; [7]): 102.69% and 101.17% | Results for Cytotoxicity (MTT readout) (HeLa TZMBL cells; AZT 0.007 μM): 2.29 and 2.333 and 2.278 | Cytotoxicity percentage (HeLa TZMBL cells; [8]): 3.26% and 5.58% | Viability percentage (HeLa TZMBL cells; [8]): 96.74% and 94.42% | Results for Cytotoxicity (MTT readout) (HeLa TZMBL cells; AZT 0.062 μM): 2.307 and 2.356 and 2.337 | Cytotoxicity percentage (HeLa TZMBL cells; [9]): 2.29% and 3.09% | Viability percentage (HeLa TZMBL cells; [9]): 97.71% | Results for Cytotoxicity (MTT readout) (HeLa TZMBL cells; AZT 0.556 μM): 2.353 and 2.414 and 2.406 | Cytotoxicity percentage (HeLa TZMBL cells; [10]): 2.42% and −0.16% and 0.18% | Viability percentage (HeLa TZMBL cells; [10]): 100.16% and 99.82% | Results for Cytotoxicity (MTT readout) (HeLa TZMBL cells; AZT 1.667 μM): 2.46 and 2.505 and 2.469 | Cytotoxicity percentage (HeLa TZMBL cells; [11]): −2.10% and −4.00% and −2.48% | Viability percentage (HeLa TZMBL cells; [11]): 104.00% and 102.48% | Results for Cytotoxicity (MTT readout) (HeLa TZMBL cells; AZT 5.000 μM): 2.337 and 2.402 and 2.36 | Cytotoxicity percentage (HeLa TZMBL cells; AZT 5.000 μM, 2880 min, 5 µM): 3.09% and 0.35% and 2.12% | Viability percentage (HeLa TZMBL cells; AZT 5.000 μM, 2880 min, 5 µM): 99.65% and 97.88% | cytotoxicity at 48 h, 0.007 µM ([1]; Cytotoxicity percentage, AZT 0.007 μM): 5.07% | cytotoxicity at 48 h, 0.062 µM ([1]; Cytotoxicity percentage, AZT 0.062 μM): 4.36% | viability at 48 h, 0.002 µM ([1]; Viability percentage, AZT 0.002 μM): 102% | viability at 48 h, 0.007 µM ([1]; Viability percentage, AZT 0.007 μM): 94.9% | viability at 48 h, 0.062 µM ([1]; Viability percentage, AZT 0.062 μM): 95.6% | viability at 48 h, 0.556 µM ([1]; Viability percentage, AZT 0.556 μM): 97.6% | viability at 48 h, 1.667 µM ([1]; Viability percentage, AZT 1.667 μM): 102% | viability at 48 h, 5 µM ([1]; Viability percentage, AZT 5.000 μM): 96.9% | activity at 0.002 µM (HIV-1 NL4-3; read-out: % Infection, AZT 0.002 μM, replicate wells): 13.3% | activity at 0.007 µM (HIV-1 NL4-3; read-out: % Infection, AZT 0.007 μM, replicate wells): 9.89% | activity at 0.062 µM (HIV-1 NL4-3; read-out: % Infection, AZT 0.062 μM, replicate wells): 5.07% | activity at 0.556 µM (HIV-1 NL4-3; read-out: % Infection, AZT 0.556 μM, replicate wells): 1.7% | activity at 1.667 µM (HIV-1 NL4-3; read-out: % Infection, AZT 1.667 μM, replicate wells): 0.89% | activity at 5 µM (HIV-1 NL4-3; read-out: % Infection, AZT 5.000 μM, replicate wells): 0.47% | viability at 48 h, 0.002 µM ([2]; AZT 0.002 μM): 29.9% | viability at 48 h, 0.007 µM ([2]; AZT 0.007 μM): 48.2% | viability at 48 h, 0.062 µM ([2]; AZT 0.062 μM): 74.2% | viability at 48 h, 0.556 µM ([2]; AZT 0.556 μM): 92.5% | viability at 48 h, 1.667 µM ([2]; AZT 1.667 μM): 96.8% | viability at 48 h, 5 µM ([2]; AZT 5.000 μM): 99.1%

CCC(CC)COC(=O)[C@H](C)N[P@](=O)(OC[C@H]1O[C@@](C#N)(c2ccc3c(N)ncnn23)[C@H](O)[C@@H]1O)Oc1ccccc1 [Remdesivir, reference compound]
Viability percentage (Vero AD cells; 0.31 μm): 99.84% | Viability percentage (Vero AD cells; 0.63 μm): 108.33% | Viability percentage (Vero AD cells; 1.25 μm): 110.83% and 112.82% | Viability percentage (Vero AD cells; 2.5 μm): 107.83% and 115.32% | Viability percentage (Vero AD cells; 5 μm): 122.31% | Viability percentage (Vero AD cells; 10 μm): 106.83% | Viability percentage (Vero AD cells; 20 μm): 94.35% and 93.35% | viability at […] ([3]; 0.16 μm): 100% | viability at 0.31 µM ([3]; 0.31 μm): 106% | viability at 0.63 µM ([3]; 0.63 μm): 102% | viability at 1.25 µM ([3]; 1.25 μm): 103% | viability at 2.5 µM ([3]; 2.5 μm): 112% | viability at 5 µM ([3]; 5 μm): 110% | viability at 10 µM ([3]; 10 μm): 105% | viability at 20 µM ([3]; 20 μm): 101% | absorbance at 570 nm (SARS-CoV-2 [4]; 0.16 μm): 0.086 and 0.077 and 0.078 | absorbance at 570 nm (SARS-CoV-2 [4]; 0.31 μm): 0.084 and 0.098 | absorbance at 570 nm (SARS-CoV-2 [4]; 0.63 μm): 0.094 | absorbance at 570 nm (SARS-CoV-2 [4]; 1.25 μm): 0.127 and 0.137 and 0.128 | Viability percentage (SARS-CoV-2 [4]; 1.25 μm): 47.72% and 46.55% and 58.30% | absorbance at 570 nm (SARS-CoV-2 [4]; 2.5 μm): 0.178 and 0.195 | Viability percentage (SARS-CoV-2 [4]; 2.5 μm): 92.36% and 106.46% and 126.43% | absorbance at 570 nm (SARS-CoV-2 [4]; 5 μm): 0.198 and 0.215 and 0.174 | Viability percentage (SARS-CoV-2 [4]; 5 μm): 101.76% and 129.96% and 149.93% | absorbance at 570 nm (SARS-CoV-2 [4]; 10 μm): 0.169 and 0.199 and 0.188 | Viability percentage (SARS-CoV-2 [4]; 10 μm): 118.21% and 95.89% and 131.13% | Viability percentage (SARS-CoV-2 [4]; 20 μm): 80.62% and 86.49% and 79.44%

OC[C@@H](O)[C@H](O)[C@@H](O)CO [xylitol, reference compound]
effect on glycated hemoglobin (HbA1c) levels [5]: little or no effect

Triton [reference compound]
Cytotoxicity percentage (HeLa TZMBL cells; [12]): 99.99% and 100.03% | Results for Cytotoxicity (MTT readout) (HeLa TZMBL cells; [12]): 0.040 and 0.039 | Viability percentage (HeLa TZMBL cells; [12]): 0.01% and −0.03%

heparin
inhibition of SARS-CoV-2 viral attachment (SARS-CoV-2 [6]): inhibits SARS-CoV-2 viral attachment
